The test has as its system 4T1 tumor (highly metastatic, syngeneic mammary cancer cell line). Briefly: Survival of tumor-bearing mice after cyclophosphamide, intratumoral nanoparticles and cryoablation or resection. It is filed as in vivo, BALB/c mice. As to conditions: Cy 200 mg/kg intraperitoneally day 14 plus cryoablation day 16, compared with Cy plus surgical resection of the subcutaneous nodule; FIG. 3A. How it is done:
The particles are suspended with a pipette for about one minute. […] The particles in PBS should not be used if kept for more than 12 hours. The particles are lightly sonicated with a bath sonicator, or vortexed to make an even suspension. The particles should not sit idly in the syringe as they will settle and then clog the syringe. Ideally, the injection should be made within 10-30 seconds after drawing the well-mixed nanoparticle suspension into the syringe. For mice with a tumor of 5-8 mm diameter, 100 mg of particles is injected directly into the tumor in a volume of 0.1 ml.
Groups of 10 BALB/c mice each received a subcutaneous inoculation of 10^4 cells of the highly metastatic, syngeneic mammary cancer cell line on the flank.

`O=P1(N(CCCl)CCCl)NCCCO1` (stereo not shown) [cyclophosphamide]: the survival result is given as “did not survive significantly longer”.

(Values after patent publication US20130302409A1, “METHODS AND COMPOSITIONS FOR CANCER IMMUNOTHERAPY” (priority 2010, published 2013).)
